According to paper PMC11844072, “Novel 5,6-dichlorobenzimidazole derivatives as dual BRAFWT and BRAFV600E inhibitors: design, synthesis, anti-cancer activity and molecular dynamics simulations” (BMC Chemistry, 2025):

Columns and labels:
SN12C = assay: NCI 60 single concentration growth inhibition; format: cell-based, human; conditions: Homo sapiens, Renal cancer, read-out: GI%
Protocol: (§1) The synthesized dichlorobenzimidazoles 10a–p were assayed for their influence on divers cancer cell lines according to the method presented in the Additional file A.
(§2) 5. Screening of cytotoxic activity against a panel of sixty human tumor cell lines
(§3) The selected compounds by NCI were evaluated for their anticancer activity in a two-stage process. First, these compounds were screened against the full NCI 60 cell lines panel at a single high dose of 10 µM. Then, the output from the single dose screen is reported as a mean graph. […]
(§4) at five different minimal concentrations.
(§5) Assay protocol. The human tumor cell lines of the cancer screening panel are grown in RPMI 1640 medium containing 5% fetal bovine serum and 2 mM L-glutamine. For a typical screening experiment, cells are inoculated into 96 well microtiter plates in 100 µL at plating densities ranging from 5000 to 40,000 cells/well depending on the doubling time of individual cell lines. After cell inoculation, the microtiter plates are incubated at 37 °C, 5% CO 2, 95% air and 100% relative humidity for 24 h prior to addition of the experimental drugs.
(§6) After 24 h, two plates of each cell line are fixed in situ with TCA, to represent a measurement of the cell population for each cell line at the time of drug addition (Tz). The experimental drugs are solubilized in dimethyl sulfoxide at 400-fold the desired final maximum test concentration and stored frozen prior to use. At the time of drug addition, an aliquot of frozen concentrate is thawed and diluted to twice the desired final maximum test concentration with complete medium containing 50 µg/mL gentamicin. Additional four, 10-fold or ½ log serial dilutions are made to provide a total of five drug concentrations plus control.
(§7) Aliquots of […] of these different drug dilutions are added to the appropriate microtiter wells already containing […] of medium, resulting in the required final drug concentrations.
(§8) Following drug addition, the plates are incubated for an additional 48 h at 37 °C, 5% CO 2, 95% air, and 100% relative humidity. For adherent cells, the assay is terminated by the addition of cold TCA.
(§9) Cells are fixed in situ by the gentle addition of 50 µL of cold 50% (w/v) TCA (final concentration, 10% TCA) and incubated for 60 min at 4 °C. The supernatant is discarded, and the plates are washed five times with tap water and air dried. Sulforhodamine B (SRB) solution ([…]) at 0.4% (w/v) in 1% acetic acid is added to each well, and plates are incubated for 10 min at room temperature. After staining, unbound dye is removed by washing five times with 1% acetic acid and the plates are air dried. Bound stain is subsequently solubilized with 10 mM trizma base, and the absorbance is read on an automated plate reader at a wavelength of 515 nm. For suspension cells, the methodology is […]
(§10) the same except that the assay is terminated by fixing settled cells at the bottom of the wells by gently adding 50 µl of 80% TCA (final concentration, 16% TCA). Using the seven absorbance measurements [time zero, (Tz), control growth, (C), and test growth in the presence of drug at the five concentration levels (Ti)], the percentage growth is calculated at each of the drug concentrations […]
(§11) Percentage growth inhibition is calculated as: [(Ti Tz)/(C–Tz)] x 100 for concentrations for which Ti>/=Tz and [(Ti-Tz)/Tz] x 100 for concentrations for which Ti < Tz.
(§12) Three dose response parameters are calculated for each experimental agent. Growth […]
(§13) concentration resulting in a 50% reduction in the net protein increase (as measured by SRB staining) in control cells during the drug incubation. The drug concentration resulting in total growth inhibition (TGI) is calculated from Ti = Tz. […]
(§14) reduction in the measured protein at the end of the drug treatment as compared to that at the beginning) indicating a net loss of cells following treatment is calculated from [(Ti–Tz)/Tz] x 100 =
(§15) _50. Values are calculated for each of these three parameters if the level of activity is reached; […]

UACC-62 = assay: NCI 60 single concentration growth inhibition; format: cell-based, human; conditions: Homo sapiens, UACC-62, Melanoma, read-out: GI%
Protocol: as §1, §2, §3, §4, §5, §6, §7, §8, §9, §10, §11, §12, §13, §14, §15

UACC-257 = assay: NCI 60 single concentration growth inhibition; format: cell-based, human; conditions: Homo sapiens, UACC-257, Melanoma, read-out: GI%
Protocol: as §1, §2, §3, §4, §5, §6, §7, §8, §9, §10, §11, §12, §13, §14, §15

BT-549 = assay: NCI 60 single concentration growth inhibition; format: cell-based, human; conditions: Homo sapiens, BT-549, Breast cancer, read-out: GI%
Protocol: as §1, §2, §3, §4, §5, §6, §7, §8, §9, §10, §11, §12, §13, §14, §15

HL-60(TB) = assay: NCI 60 single concentration growth inhibition; format: cell-based, human; conditions: Homo sapiens, Leukemia, read-out: GI%
Protocol: as §1, §2, §3, §4, §5, §6, §7, §8, §9, §10, §11, §12, §13, §14, §15

RPMI-8226 = assay: NCI 60 single concentration growth inhibition; format: cell-based, human; conditions: Homo sapiens, RPMI-8226, Leukemia, read-out: GI%
Protocol: as §1, §2, §3, §4, §5, §6, §7, §8, §9, §10, §11, §12, §13, §14, §15

[1] = tested on: NCI 60 cancer cell line panel; assay: NCI 60 single concentration growth inhibition, panel mean; format: cell-based; conditions: Homo sapiens, mean over NCI 60 panel, read-out: Mean GI%
Protocol: as §1, §2, §3, §4, §5, §6, §7, §8, §9, §10, §11, §12, §13, §14, §15

BRAFWT = biological target: T1, BRAFWT (Homo sapiens, UniProt P15056); assay: BRAFWT kinase assay kit (Kinase-Glo Max luminescence); format: biochemical; conditions: mean of two independent experiments ± SD; for inhibition at 10 µM: BRAFwt
T1 construct: purchased BPS Biosciences 78316
T1 sequence (P15056 whole entry): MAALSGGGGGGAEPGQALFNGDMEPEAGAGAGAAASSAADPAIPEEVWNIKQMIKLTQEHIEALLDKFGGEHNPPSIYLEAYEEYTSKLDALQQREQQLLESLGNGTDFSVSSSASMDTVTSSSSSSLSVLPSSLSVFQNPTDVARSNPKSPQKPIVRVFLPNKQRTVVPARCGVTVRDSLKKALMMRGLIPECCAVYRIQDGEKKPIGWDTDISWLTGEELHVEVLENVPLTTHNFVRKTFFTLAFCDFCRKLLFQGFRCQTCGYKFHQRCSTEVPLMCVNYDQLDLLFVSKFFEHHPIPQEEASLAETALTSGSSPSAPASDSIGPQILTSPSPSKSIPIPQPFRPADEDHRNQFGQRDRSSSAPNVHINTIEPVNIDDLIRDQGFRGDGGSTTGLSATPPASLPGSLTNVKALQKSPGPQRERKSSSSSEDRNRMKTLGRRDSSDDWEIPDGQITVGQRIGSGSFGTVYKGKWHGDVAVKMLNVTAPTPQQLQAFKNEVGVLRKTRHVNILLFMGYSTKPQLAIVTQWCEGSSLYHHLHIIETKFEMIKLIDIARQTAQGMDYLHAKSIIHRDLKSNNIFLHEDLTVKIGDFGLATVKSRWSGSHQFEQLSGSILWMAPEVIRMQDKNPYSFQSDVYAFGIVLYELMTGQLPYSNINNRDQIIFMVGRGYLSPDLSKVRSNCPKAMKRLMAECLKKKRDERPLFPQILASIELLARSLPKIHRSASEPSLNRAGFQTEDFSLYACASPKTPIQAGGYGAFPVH
Protocol: The inhibitory activities of 10a–p on BRAFWT was examined utilizing BRAFWT assay kit (BPS Biosciences—San Diego—CA—US) (For further information see Additional file A).
4. Biochemical kinase assays
The inhibitory activity against different kinases was determined using kinase kits (BRAF WT […]
Glo Max luminescence kinase assay kit (Promega).
The assay was carried out according to the protocol provided by the manufacturer. A stock solution of the synthesized derivatives in 100% DMSO was prepared. Subsequently, the compounds were diluted to 10% DMSO.
A master mixture was prepared according to the number of wells. For BRAF assay each well include 6 μl of 5x Kinase Buffer 1 + 1 μl of ATP (500 μM) + 10 μl of 5X Raf substrate + 8 μl of distilled water. 1x Kinase buffer 1 was prepared by mixing 600 μl of 5x Kinase Buffer 1 with 2400 μl water to give 3 mL. Kinases were thawed on ice and were diluted with 1x Kinase Buffer 1.
To start the biochemical reaction, 25 µL of the master mixture was added to each well in 96 well plate. 5 µL of 10% DMSO was added to positive control wells and blank wells. 5 µL of diluted inhibitor was added to each well labelled with the test inhibitor so that the final concentration of DMSO is 1% in all reactions. Then 20 µL of (2.5 ng/μl) in case of BRAF WT and (1 ng / μl) in case of VEGFR-2 and FGFR-1 in 1x kinase buffer was added to positive control wells and wells labelled with the inhibitor, while 20 µL 1x kinase buffer 1 was added to the blank wells.
The plate was incubated at 30 °C for 45 min. Subsequently, 50 μl of Kinase-Glo Max luminescence reagent was added to each well and the plate was covered with aluminum foil and incubated at room temperature for 15 min. Finally, the luminescence was recorded using multimode microplate reader. Kinase activity assays were performed in duplicate at each concentration.
The luminescence data were analyzed as follows. The difference between luminescence intensities in the absence of kinase (Lu t) and in the presence of kinase (Lu c) was defined as 100 % […]
calculated as: % activity = {(Lu t - Lu)/(Lut - Luc)} ×100%. The concentration of the test compounds required to reduce the kinase activity by 50% was determined from dose-response curves and […]

| SMILES | inhibition at 10 µM (SN12C) [%] | inhibition at 10 µM (UACC-62) [%] | inhibition at 10 µM (UACC-257) [%] | inhibition at 10 µM (BT-549) [%] | inhibition at 10 µM (HL-60(TB)) [%] | inhibition at 10 µM (RPMI-8226) [%] | inhibition at 10 µM [1] [%] | inhibition at 10 µM (BRAFWT) [%] | IC50 (BRAFWT) [µM] |
| --- | --- | --- | --- | --- | --- | --- | --- | --- | --- |
| COC(=O)COc1ccc(C=NNC(=O)Cn2c(-c3ccc(OC)cc3)nc3cc(Cl)c(Cl)cc32)cc1 [Compound 10h, Methyl-2-(4-((2-(2-(5,6-dichloro-2-(4-methoxyphenyl)-1H-benzo[d]imidazol-1-yl)acetyl)hydrazono)methyl)phenoxy)acetate] | 66.4 | < 5 | < 5 | 6.87 | < 5 | < 5 | 36.6 | 91.2 ± 6.5 | 1.72 ± 0.09 |
| CCOC(=O)C(C)Oc1ccc(C=NNC(=O)Cn2c(-c3ccc(OC)cc3)nc3cc(Cl)c(Cl)cc32)cc1 (stereo not shown) [Compound 10j, Ethyl-2-(4-((2-(2-(5,6-dichloro-2-(4-methoxyphenyl)-1H-benzo[d]imidazol-1-yl)acetyl) hydrazono)methyl)phenoxy)propanoate] | 51.9 | 20.1 | < 5 | 11.8 | 6.19 | 40.2 | 18.4 | 70.2 ± 6.16 |  |
| COc1ccc(-c2nc3cc(Cl)c(Cl)cc3n2CC(=O)NN=Cc2ccc(OC)c(O)c2)cc1 [Compound 10k, 2-(5,6-Dichloro-2-(4-methoxyphenyl)-1H-benzo[d]imidazol-1-yl)-N'-(3-hydroxy-4-methoxybenzylidene)acetohydrazide] | 16.3 | 35.4 | 40.1 | 31.7 | 60.8 | 38.8 | 35.4 | 47.6 ± 3.8 |  |
| COc1ccc(-c2nc3cc(Cl)c(Cl)cc3n2CC(=O)NN=Cc2ccc(O)c(OC)c2)cc1 [Compound 10l, 2-(5,6-Dichloro-2-(4-methoxyphenyl)-1H-benzo[d]imidazol-1-yl)-N'-(4-hydroxy-3-methoxybenzylidene)acetohydrazide] | 19.9 | 33.6 | 36.3 | 50.2 | 44.5 | 48.3 | 34.6 | 52.3 ± 4.92 |  |
| COC(=O)COc1cc(C=NNC(=O)Cn2c(-c3ccc(OC)cc3)nc3cc(Cl)c(Cl)cc32)ccc1OC [Compound 10o, Methyl-2-(5-((2-(2-(5,6-dichloro-2-(4-methoxyphenyl)-1H-benzo[d]imidazol-1-yl)acetyl)hydrazono)methyl)-2-methoxyphenoxy)acetate] | 97.2 | 24.3 | 41.4 | < 5 | < 5 | 17.9 | 34.6 | 34.3 ± 3.31 |  |
| COC(=O)COc1ccc(C=NNC(=O)Cn2c(-c3ccc(OC)cc3)nc3cc(Cl)c(Cl)cc32)cc1OC [Compound 10p, Methyl-2-(4-((2-(2-(5,6-dichloro-2-(4-methoxyphenyl)-1H-benzo[d]imidazol-1-yl)acetyl)hydrazono)methyl)-2-methoxyphenoxy)acetate] | 99.5 | 36.5 | 22.7 | 15.1 | < 5 | 15.7 | 37.6 | 90.5 ± 8.9 |  |
